Source: patent US20260184710A1, “CASITAS B-LINEAGE LYMPHOMA PROTOONCOGENE B (CBL-B) DEGRADING COMPOUNDS AND ASSOCIATED METHODS OF USE” (Arvinas Operations, Inc., priority 2022, published 2026)

Target: T1, Cbl-b (Homo sapiens, UniProt Q13191)
T1 construct: Cbl-b-HiBit KI Jurkat Cells were purchased from Promega; host or cells: Cbl-b-HiBiT knock-in Jurkat cells
Assay: Cbl-b Degradation Method B (Nano-Glo HiBiT lytic detection)
Format: cell-based
Conditions: Cbl-b-HiBit KI Jurkat Cells, incubated at least 6-24 hours; for DC50: half maximal degradation, read-out: Cbl-b Degredation Method B IC50; for Dmax: maximum degradation observed, read-out: Cbl-b Degredation Method B Dmax (%)
Procedure, shortened: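 An 11-point, 3-fold compound dilution was applied for 6-24 hours to Jurkat cells carrying HiBiT-tagged endogenous Cbl-b. Lytic HiBiT luminescence quantified residual protein. Outputs are DC50 and Dmax relative to DMSO control.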

T1 sequence (Q13191 whole entry): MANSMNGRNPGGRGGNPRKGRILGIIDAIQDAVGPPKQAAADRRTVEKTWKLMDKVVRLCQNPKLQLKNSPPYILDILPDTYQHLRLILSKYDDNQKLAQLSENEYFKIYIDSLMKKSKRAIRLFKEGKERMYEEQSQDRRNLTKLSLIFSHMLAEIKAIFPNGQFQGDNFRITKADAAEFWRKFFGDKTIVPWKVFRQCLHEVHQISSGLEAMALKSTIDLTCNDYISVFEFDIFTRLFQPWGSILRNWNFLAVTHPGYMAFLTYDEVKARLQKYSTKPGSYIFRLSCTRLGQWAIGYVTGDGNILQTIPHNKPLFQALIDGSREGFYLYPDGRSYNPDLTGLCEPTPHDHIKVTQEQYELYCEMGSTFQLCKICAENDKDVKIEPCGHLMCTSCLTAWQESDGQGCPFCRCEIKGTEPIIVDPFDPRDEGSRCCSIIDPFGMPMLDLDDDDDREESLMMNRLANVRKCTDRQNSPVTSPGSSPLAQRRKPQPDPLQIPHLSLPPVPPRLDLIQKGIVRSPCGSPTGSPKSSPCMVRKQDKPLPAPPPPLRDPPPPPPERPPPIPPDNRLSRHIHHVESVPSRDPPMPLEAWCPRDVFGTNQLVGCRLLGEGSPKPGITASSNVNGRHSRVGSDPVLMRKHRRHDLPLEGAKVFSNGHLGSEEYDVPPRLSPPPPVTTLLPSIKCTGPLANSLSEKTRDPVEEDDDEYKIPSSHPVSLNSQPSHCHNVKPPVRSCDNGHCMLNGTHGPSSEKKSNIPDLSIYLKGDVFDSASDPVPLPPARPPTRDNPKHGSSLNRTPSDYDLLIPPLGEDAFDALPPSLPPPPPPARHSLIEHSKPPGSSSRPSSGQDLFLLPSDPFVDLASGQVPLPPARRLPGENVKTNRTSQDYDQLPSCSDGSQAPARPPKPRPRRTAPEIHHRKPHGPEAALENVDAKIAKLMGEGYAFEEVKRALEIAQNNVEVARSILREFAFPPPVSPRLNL

DC50	Dmax	Structure (SMILES)
< 5 nM	> 70%	Cc1cc(N2CCC(O[C@H]3CC[C@@H](CN4CCN(C[C@H]5CCCN(Cc6cc7c(c(C(F)(F)F)c6)CN(c6cccc(C8(Cc9nncn9C)COC8)c6)C7=O)C5)C(C)(C)C4)CC3)CC2)c(F)c2c1C(=O)N(C1CCC(=O)NC1=O)C2 (stereo partly drawn) [Example 269, 3-[4-fluoro-7-methyl-1-oxo-5-(4-{[(1r,4r)-4-[(3,3-dimethyl-4-{[(3S)-1-{[2-(3-{3-[(4-methyl-4H-1,2,4-triazol-3-yl)methyl]oxetan-3-yl}phenyl)-3-oxo-7-(trifluoromethyl)-2,3-dihydro-1H-isoindol-5-yl]methyl}piperidin-3-yl]methyl}piperazin-1-yl)methyl]cyclohexyl]oxy}piperidin-1-yl)-2,3-dihydro-1H-isoindol-2-yl]piperidine-2,6-dione]
< 5 nM	35 to 70%	Cn1cnnc1C[C@]1(c2cccc(N3Cc4c(cc(CN5CCC[C@H](CN6CCN(C[C@H]7CC[C@H](OC8CCN(c9ccc%10c(c9F)CN(C9CCC(=O)NC9=O)C%10=O)CC8)CC7)CC6)C5)cc4C(F)(F)F)C3=O)c2)C[C@@H](C#N)C1 (stereo partly drawn) [Example 168, (1r,3r)-3-[(4-methyl-4H-1,2,4-triazol-3-yl)methyl]-3-[3-(1-oxo-6-{[(3S)-3-[(4-{[(1r,4r)-4-({1-[2-(2,6-dioxopiperidin-3-yl)-4-fluoro-1-oxo-2,3-dihydro-1H-isoindol-5-yl]piperidin-4-yl}oxy)cyclohexyl]methyl}piperazin-1-yl)methyl]piperidin-1-yl]methyl}-4-(trifluoromethyl)-2,3-dihydro-1H-isoindol-2-yl)phenyl]cyclobutane-1-carbonitrile]
> 500 nM	–	CC1c2nc(N3CCC(CN4CCN(CC5CCN(Cc6cc7c(c(C(F)(F)F)c6)CN(c6cccc([C@]8(Cc9nncn9C)C[C@@H](C#N)C8)c6)C7=O)CC5)C(C)(C)C4)CC3)ccc2C(=O)N1C1CCC(=O)NC1=O (stereo partly drawn) [Example 287, (1r,3r)-3-(3-{6-[(4-{[4-({1-[6-(2,6-dioxopiperidin-3-yl)-7-methyl-5-oxo-5H,6H,7H-pyrrolo[3,4-b]pyridin-2-yl]piperidin-4-yl}methyl)-2,2-dimethylpiperazin-1-yl]methyl}piperidin-1-yl)methyl]-1-oxo-4-(trifluoromethyl)-2,3-dihydro-1H-isoindol-2-yl}phenyl)-3-[(4-methyl-4H-1,2,4-triazol-3-yl)methyl]cyclobutane-1-carbonitrile]
< 5 nM	> 70%	C[C@@H]1c2nc(N3CCC(O[C@H]4CC[C@H](CN5CCN(Cc6cc7c(c(C(F)(F)F)c6)CN(c6cccc(C8(Cc9nncn9C)CC(C#N)C8)c6)C7=O)[C@@H](C)C5)CC4)CC3)ccc2C(=O)N1C1CCC(=O)NC1=O (single isomer, unassigned) [Example 247, (1r***,3r***)-3-[3-(6-{[(2S)-2-methyl-4-{[(1r**,4r**)-4-({1-[(7R*)-6-(2,6-dioxopiperidin-3-yl)-7-methyl-5-oxo-5H,6H,7H-pyrrolo[3,4-b]pyridin-2-yl]piperidin-4-yl}oxy)cyclohexyl]methyl}piperazin-1-yl]methyl}-1-oxo-4-(trifluoromethyl)-2,3-dihydro-1H-isoindol-2-yl)phenyl]-3-[(4-methyl-4H-1,2,4-triazol-3-yl)methyl]cyclobutane-1-carbonitrile]
< 5 nM	> 70%	CC(C)n1c(=O)n(C2CCC(=O)NC2=O)c2ccc(N3CCC(O[C@H]4CC[C@H](CN5CCN(Cc6cc7c(c(C(F)(F)F)c6)CN(c6cccc([C@]8(Cc9nncn9C)C[C@@H](C#N)C8)c6)C7=O)CC5)CC4)CC3)cc21 (stereo partly drawn) [Example 228, (1r,3r)-3-[(4-methyl-4H-1,2,4-triazol-3-yl)methyl]-3-(3-{1-oxo-6-[(4-{[(1r,4r)-4-({1-[1-(2,6-dioxopiperidin-3-yl)-2-oxo-3-(propan-2-yl)-2,3-dihydro-1H-1,3-benzodiazol-5-yl]piperidin-4-yl}oxy)cyclohexyl]methyl}piperazin-1-yl)methyl]-4-(trifluoromethyl)-2,3-dihydro-1H-isoindol-2-yl}phenyl)cyclobutane-1-carbonitrile]
< 5 nM	> 70%	CC(C)n1c(=O)n(C2CCC(=O)NC2=O)c2ccc(N3CCC(O[C@H]4CC[C@@H](CN5CCN(C[C@H]6CCCN(Cc7cc8c(c(C(F)(F)F)c7)CN(c7cccc(C9(Cc%10nncn%10C)COC9)c7)C8=O)C6)C(C)(C)C5)CC4)CC3)cc21 (stereo partly drawn) [Example 263, 3-[2-oxo-3-(propan-2-yl)-5-(4-{[(1r,4r)-4-[(3,3-dimethyl-4-{[(3S)-1-{[2-(3-{3-[(4-methyl-4H-1,2,4-triazol-3-yl)methyl]oxetan-3-yl}phenyl)-3-oxo-7-(trifluoromethyl)-2,3-dihydro-1H-isoindol-5-yl]methyl}piperidin-3-yl]methyl}piperazin-1-yl)methyl]cyclohexyl]oxy}piperidin-1-yl)-2,3-dihydro-1H-1,3-benzodiazol-1-yl]piperidine-2,6-dione]
> 500 nM	–	C[C@@H]1CN(CC2CCC(OC3CCN(c4ccc5c(n4)[C@@H](C)N(C4CCC(=O)NC4=O)C5=O)CC3)CC2)CCN1Cc1cc2c(c(C(F)(F)F)c1)CN(c1cccc([C@]3(Cc4nncn4C)C[C@H](C#N)C3)c1)C2=O (single isomer, unassigned) [Example 240, (1rs&,3rs&)-3-[3-(6-{[(2R)-2-methyl-4-{[(1rs,4rs)-4-({1-[(7R*)-6-(2,6-dioxopiperidin-3-yl)-7-methyl-5-oxo-5H,6H,7H-pyrrolo[3,4-b]pyridin-2-yl]piperidin-4-yl}oxy)cyclohexyl]methyl}piperazin-1-yl]methyl}-1-oxo-4-(trifluoromethyl)-2,3-dihydro-1H-isoindol-2-yl)phenyl]-3-[(4-methyl-4H-1,2,4-triazol-3-yl)methyl]cyclobutane-1-carbonitrile]
5 to 50 nM	35 to 70%	CC(C)n1c(=O)n(C2CCC(=O)NC2=O)c2cccc(N3CCC(O[C@H]4CC[C@H](CN5CCN(Cc6cc7c(c(C(F)(F)F)c6)CN(c6cccc([C@]8(Cc9nncn9C)C[C@@H](C#N)C8)c6)C7=O)C(C)(C)C5)CC4)CC3)c21 (stereo partly drawn) [Example 275, (1r,3r)-3-(3-{6-[(2,2-dimethyl-4-{[(1r,4r)-4-({1-[1-(2,6-dioxopiperidin-3-yl)-2-oxo-3-(propan-2-yl)-2,3-dihydro-1H-1,3-benzodiazol-4-yl]piperidin-4-yl}oxy)cyclohexyl]methyl}piperazin-1-yl)methyl]-1-oxo-4-(trifluoromethyl)-2,3-dihydro-1H-isoindol-2-yl}phenyl)-3-[(4-methyl-4H-1,2,4-triazol-3-yl)methyl]cyclobutane-1-carbonitrile]
> 500 nM	–	Cn1cnnc1C[C@]1(c2cccc(N3Cc4c(cc(CN5CCN(C[C@H]6CC[C@H](OC7CCN(c8ccc(C9CCC(=O)NC9=O)cn8)CC7)CC6)CC5)cc4C(F)(F)F)C3=O)c2)C[C@H](C#N)C1 (stereo partly drawn) [Example 210, (1r,3r)-3-[(4-methyl-4H-1,2,4-triazol-3-yl)methyl]-3-(3-{1-oxo-6-[(4-{[(1r,4r)-4-({1-[5-(2,6-dioxopiperidin-3-yl)pyridin-2-yl]piperidin-4-yl}oxy)cyclohexyl]methyl}piperazin-1-yl)methyl]-4-(trifluoromethyl)-2,3-dihydro-1H-isoindol-2-yl}phenyl)cyclobutane-1-carbonitrile]
< 5 nM	35 to 70%	CC1c2nc(N3CCC(O[C@H]4CC[C@H](CN5CCN(Cc6cc7c(c(C(F)(F)F)c6)CN(c6cccc(C8(Cc9nncn9C)COC8)c6)C7=O)C(C)(C)C5)CC4)CC3)ccc2C(=O)N1C1CCC(=O)NC1=O (relative stereo) [Example 246, rel-3-[7-methyl-5-oxo-2-(4-{[(1r,4r)-4-[(3,3-dimethyl-4-{[2-(3-{3-[(4-methyl-4H-1,2,4-triazol-3-yl)methyl]oxetan-3-yl}phenyl)-3-oxo-7-(trifluoromethyl)-2,3-dihydro-1H-isoindol-5-yl]methyl}piperazin-1-yl)methyl]cyclohexyl]oxy}piperidin-1-yl)-5H,6H,7H-pyrrolo[3,4-b]pyridin-6-yl]piperidine-2,6-dione]
> 500 nM	–	Cn1cnnc1CC1(c2cccc(N3Cc4c(cc(CN5CC(CC6CN(c7ccc8c(c7)C(=O)N(C7CCC(=O)NC7=O)C8=O)C6)C5)cc4C(F)(F)F)C3=O)c2)COC1 (stereo not drawn) [Example 58, 2-(2,6-dioxopiperidin-3-yl)-5-{3-[(1-{[2-(3-{3-[(4-methyl-4H-1,2,4-triazol-3-yl)methyl]oxetan-3-yl}phenyl)-3-oxo-7-(trifluoromethyl)-2,3-dihydro-1H-isoindol-5-yl]methyl}azetidin-3-yl)methyl]azetidin-1-yl}-2,3-dihydro-1H-isoindole-1,3-dione]
< 5 nM	35 to 70%	Cn1cnnc1CC1(c2cccc(N3Cc4c(cc(CN5CCC[C@H](CN6CCN(C(=O)[C@H]7CC[C@@H](OC8CCN(c9ccc%10c(c9F)CN(C9CCC(=O)NC9=O)C%10=O)CC8)CC7)CC6)C5)cc4C(F)(F)F)C3=O)c2)COC1 (stereo partly drawn) [Example 113, 3-[4-fluoro-1-oxo-5-(4-{[(1r,4r)-4-(4-{[(3S)-1-{[2-(3-{3-[(4-methyl-4H-1,2,4-triazol-3-yl)methyl]oxetan-3-yl}phenyl)-3-oxo-7-(trifluoromethyl)-2,3-dihydro-1H-isoindol-5-yl]methyl}piperidin-3-yl]methyl}piperazine-1-carbonyl)cyclohexyl]oxy}piperidin-1-yl)-2,3-dihydro-1H-isoindol-2-yl]piperidine-2,6-dione]
> 500 nM	–	Cn1cnnc1CC1(c2cccc(N3Cc4c(cc(CN5CC6(C5)CN(CC5CCN(c7cccc8c7C(=O)N(C7CCC(=O)NC7=O)C8=O)CC5)C6)cc4C(F)(F)F)C3=O)c2)COC1 (stereo not drawn) [Example 69, 2-(2,6-dioxopiperidin-3-yl)-4-{4-[(6-{[2-(3-{3-[(4-methyl-4H-1,2,4-triazol-3-yl)methyl]oxetan-3-yl}phenyl)-3-oxo-7-(trifluoromethyl)-2,3-dihydro-1H-isoindol-5-yl]methyl}-2,6-diazaspiro[3.3]heptan-2-yl)methyl]piperidin-1-yl}-2,3-dihydro-1H-isoindole-1,3-dione]
